Common to all, as to experiment: biochemical
In experiment [1] the target is T1, panel of 374 wild-type kinases (Homo sapiens, UniProt Q9BWU1).
T1 construct: purchased Reaction Biology Corporation
The conditions noted are these: read-out: % Enzyme Activity (relative to DMSO controls), CDK19/cyclin C.

For experiment [2], the target named is T2, panel of 374 wild-type kinases (Homo sapiens, UniProt P49841).
T2 construct: purchased Reaction Biology Corporation
The conditions noted are these: read-out: % Enzyme Activity (relative to DMSO controls), GSK3b.

The target in experiment [3] is T3, panel of 374 wild-type kinases (Homo sapiens, UniProt P80192).
T3 construct: purchased Reaction Biology Corporation
The following applies: read-out: % Enzyme Activity (relative to DMSO controls), MLK1/MAP3K9.

Experiment [4] addresses T4, panel of 374 wild-type kinases (Homo sapiens, UniProt Q96PF2).
T4 construct: purchased Reaction Biology Corporation
T4 sequence (Q96PF2 1-358): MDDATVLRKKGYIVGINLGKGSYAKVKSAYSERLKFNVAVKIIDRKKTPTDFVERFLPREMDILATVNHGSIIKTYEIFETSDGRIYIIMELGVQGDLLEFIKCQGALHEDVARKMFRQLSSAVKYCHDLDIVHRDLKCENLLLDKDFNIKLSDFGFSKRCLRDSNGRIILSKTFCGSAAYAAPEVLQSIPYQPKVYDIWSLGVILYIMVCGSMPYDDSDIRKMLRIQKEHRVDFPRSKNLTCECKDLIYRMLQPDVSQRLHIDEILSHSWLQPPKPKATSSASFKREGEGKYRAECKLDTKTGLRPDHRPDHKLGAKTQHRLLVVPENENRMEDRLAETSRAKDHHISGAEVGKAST
The following applies: read-out: % Enzyme Activity (relative to DMSO controls), kinase TSSK2.

For experiment [5], the target named is T5, panel of 374 wild-type kinases (Homo sapiens, UniProt Q16816).
T5 construct: purchased Reaction Biology Corporation
T5 sequence (Q16816 whole entry): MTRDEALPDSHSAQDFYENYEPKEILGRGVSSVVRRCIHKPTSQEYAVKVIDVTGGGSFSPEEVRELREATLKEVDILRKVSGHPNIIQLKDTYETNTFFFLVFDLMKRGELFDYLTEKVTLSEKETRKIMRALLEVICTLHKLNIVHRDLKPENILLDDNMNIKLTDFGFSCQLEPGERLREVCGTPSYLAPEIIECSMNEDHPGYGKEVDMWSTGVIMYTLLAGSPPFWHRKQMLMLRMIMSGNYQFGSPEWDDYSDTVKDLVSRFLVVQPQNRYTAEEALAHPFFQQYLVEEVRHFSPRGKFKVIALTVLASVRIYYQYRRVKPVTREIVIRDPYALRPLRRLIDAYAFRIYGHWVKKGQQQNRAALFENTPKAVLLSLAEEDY
The conditions noted are these: read-out: % Enzyme Activity (relative to DMSO controls), kinase PHKg1.

For experiment [6], the target named is T6, panel of 374 wild-type kinases (Homo sapiens, UniProt Q14289).
T6 construct: purchased Reaction Biology Corporation
T6 sequence (Q14289 whole entry): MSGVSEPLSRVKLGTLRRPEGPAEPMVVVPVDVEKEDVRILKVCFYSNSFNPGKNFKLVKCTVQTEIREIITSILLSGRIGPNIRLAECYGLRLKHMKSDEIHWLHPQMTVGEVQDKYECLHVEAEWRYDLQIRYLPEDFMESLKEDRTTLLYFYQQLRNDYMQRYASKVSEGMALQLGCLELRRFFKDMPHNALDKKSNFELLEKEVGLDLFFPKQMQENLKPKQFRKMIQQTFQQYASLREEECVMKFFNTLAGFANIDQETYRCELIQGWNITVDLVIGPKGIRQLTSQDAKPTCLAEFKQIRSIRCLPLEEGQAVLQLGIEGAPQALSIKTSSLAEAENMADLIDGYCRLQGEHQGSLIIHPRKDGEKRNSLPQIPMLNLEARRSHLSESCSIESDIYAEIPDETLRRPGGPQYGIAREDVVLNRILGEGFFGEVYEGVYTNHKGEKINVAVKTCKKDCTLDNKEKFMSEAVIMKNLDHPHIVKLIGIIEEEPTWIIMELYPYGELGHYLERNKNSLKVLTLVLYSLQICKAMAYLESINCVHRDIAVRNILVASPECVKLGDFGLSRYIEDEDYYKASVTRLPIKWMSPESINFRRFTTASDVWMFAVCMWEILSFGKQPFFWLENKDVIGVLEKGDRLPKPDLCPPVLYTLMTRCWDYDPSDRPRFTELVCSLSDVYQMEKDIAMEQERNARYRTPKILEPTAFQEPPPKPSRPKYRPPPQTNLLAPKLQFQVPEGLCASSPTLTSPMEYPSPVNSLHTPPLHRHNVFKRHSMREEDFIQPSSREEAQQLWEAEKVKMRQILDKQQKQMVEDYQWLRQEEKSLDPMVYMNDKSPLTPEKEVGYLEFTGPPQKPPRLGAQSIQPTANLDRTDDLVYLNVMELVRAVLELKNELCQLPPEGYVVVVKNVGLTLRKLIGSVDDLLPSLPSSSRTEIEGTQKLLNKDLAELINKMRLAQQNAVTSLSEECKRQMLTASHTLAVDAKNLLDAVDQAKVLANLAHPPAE
The conditions noted are these: read-out: % Enzyme Activity (relative to DMSO controls), kinase PYK2.

Experiment [7] deals with T7, panel of 374 wild-type kinases (Homo sapiens, UniProt Q15303).
T7 construct: purchased Reaction Biology Corporation
T7 sequence (Q15303 26-1308): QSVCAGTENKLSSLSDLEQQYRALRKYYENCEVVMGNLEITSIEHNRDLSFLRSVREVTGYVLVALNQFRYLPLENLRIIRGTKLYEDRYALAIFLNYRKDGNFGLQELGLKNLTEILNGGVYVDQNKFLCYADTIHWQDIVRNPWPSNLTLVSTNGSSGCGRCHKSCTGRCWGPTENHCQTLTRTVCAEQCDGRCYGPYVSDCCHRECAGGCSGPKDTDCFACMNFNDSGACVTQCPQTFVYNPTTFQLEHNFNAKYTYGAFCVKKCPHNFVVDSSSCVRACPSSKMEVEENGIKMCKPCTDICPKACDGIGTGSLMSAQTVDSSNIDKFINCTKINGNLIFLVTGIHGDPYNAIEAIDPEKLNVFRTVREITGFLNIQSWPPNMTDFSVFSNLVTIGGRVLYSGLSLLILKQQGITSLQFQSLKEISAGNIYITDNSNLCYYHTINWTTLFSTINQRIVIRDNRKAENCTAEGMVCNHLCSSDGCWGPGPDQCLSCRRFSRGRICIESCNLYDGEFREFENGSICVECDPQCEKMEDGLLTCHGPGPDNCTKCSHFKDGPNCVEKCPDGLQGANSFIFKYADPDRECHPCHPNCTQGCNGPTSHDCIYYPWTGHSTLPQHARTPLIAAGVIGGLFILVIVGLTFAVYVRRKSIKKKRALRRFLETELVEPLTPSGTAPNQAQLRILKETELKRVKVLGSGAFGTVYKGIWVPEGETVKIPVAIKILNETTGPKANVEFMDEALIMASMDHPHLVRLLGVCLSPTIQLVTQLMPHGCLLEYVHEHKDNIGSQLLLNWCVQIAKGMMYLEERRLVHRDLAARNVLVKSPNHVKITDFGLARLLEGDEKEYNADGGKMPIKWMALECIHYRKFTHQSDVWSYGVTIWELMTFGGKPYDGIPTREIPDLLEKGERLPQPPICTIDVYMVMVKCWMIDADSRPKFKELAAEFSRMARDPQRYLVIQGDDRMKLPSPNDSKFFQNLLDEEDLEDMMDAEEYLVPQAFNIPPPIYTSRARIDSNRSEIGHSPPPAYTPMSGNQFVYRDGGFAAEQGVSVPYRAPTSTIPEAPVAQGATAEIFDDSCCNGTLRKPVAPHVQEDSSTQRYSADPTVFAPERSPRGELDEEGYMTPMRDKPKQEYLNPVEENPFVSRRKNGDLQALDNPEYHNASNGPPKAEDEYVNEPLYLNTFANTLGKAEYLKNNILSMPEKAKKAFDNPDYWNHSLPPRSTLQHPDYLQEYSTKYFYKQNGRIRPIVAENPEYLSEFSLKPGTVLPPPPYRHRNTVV
The following applies: read-out: % Enzyme Activity (relative to DMSO controls), ERBB4/HER4.

In experiment [8] the target is T8, panel of 374 wild-type kinases (Homo sapiens, UniProt Q06418).
T8 construct: purchased Reaction Biology Corporation
T8 sequence (Q06418 41-890): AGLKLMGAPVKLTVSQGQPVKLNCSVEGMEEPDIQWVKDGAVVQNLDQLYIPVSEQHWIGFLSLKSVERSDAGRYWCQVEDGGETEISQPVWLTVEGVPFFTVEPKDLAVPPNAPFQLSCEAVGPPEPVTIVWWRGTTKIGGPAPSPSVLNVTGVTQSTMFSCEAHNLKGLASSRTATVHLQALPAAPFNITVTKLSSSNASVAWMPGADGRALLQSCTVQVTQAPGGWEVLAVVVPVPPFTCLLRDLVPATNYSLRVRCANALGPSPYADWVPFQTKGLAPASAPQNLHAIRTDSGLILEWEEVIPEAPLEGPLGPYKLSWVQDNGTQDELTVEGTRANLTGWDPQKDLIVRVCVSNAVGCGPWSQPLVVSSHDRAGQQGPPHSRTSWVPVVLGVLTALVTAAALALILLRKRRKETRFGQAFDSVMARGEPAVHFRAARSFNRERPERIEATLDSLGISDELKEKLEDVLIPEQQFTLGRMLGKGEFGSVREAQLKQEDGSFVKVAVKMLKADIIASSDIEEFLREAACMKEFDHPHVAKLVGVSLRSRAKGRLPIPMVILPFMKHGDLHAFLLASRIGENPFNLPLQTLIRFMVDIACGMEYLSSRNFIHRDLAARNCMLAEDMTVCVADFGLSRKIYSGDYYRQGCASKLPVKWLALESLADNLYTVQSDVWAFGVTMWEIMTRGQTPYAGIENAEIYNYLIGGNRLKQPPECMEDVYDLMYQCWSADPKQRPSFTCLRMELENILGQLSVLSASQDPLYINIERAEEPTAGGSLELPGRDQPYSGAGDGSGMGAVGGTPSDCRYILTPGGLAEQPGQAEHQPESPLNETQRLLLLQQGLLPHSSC
The following applies: read-out: % Enzyme Activity (relative to DMSO controls), kinase TYRO3/SKY.

In experiment [9] the target is T9, panel of 374 wild-type kinases (Homo sapiens, UniProt O75914).
T9 construct: purchased Reaction Biology Corporation
T9 sequence (O75914 whole entry): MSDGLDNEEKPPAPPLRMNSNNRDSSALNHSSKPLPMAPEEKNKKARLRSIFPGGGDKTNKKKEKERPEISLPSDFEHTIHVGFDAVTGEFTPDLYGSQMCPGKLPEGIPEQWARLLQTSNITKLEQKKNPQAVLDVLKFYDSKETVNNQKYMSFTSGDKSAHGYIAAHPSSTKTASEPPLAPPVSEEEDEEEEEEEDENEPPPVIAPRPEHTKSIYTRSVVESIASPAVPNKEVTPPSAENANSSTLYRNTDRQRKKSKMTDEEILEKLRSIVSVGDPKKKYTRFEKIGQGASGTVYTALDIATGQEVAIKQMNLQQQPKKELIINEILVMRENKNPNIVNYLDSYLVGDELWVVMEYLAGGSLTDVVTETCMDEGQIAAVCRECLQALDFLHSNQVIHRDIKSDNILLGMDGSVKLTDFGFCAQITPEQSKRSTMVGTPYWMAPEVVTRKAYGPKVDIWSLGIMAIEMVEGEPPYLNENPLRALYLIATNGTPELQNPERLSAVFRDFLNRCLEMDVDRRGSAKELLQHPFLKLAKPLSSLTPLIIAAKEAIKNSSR
The conditions noted are these: read-out: % Enzyme Activity (relative to DMSO controls), kinase PAK3.

For experiment [10], the target named is T10, panel of 374 wild-type kinases (Homo sapiens, UniProt Q96KB5).
T10 construct: purchased Reaction Biology Corporation
T10 sequence (Q96KB5 1-322): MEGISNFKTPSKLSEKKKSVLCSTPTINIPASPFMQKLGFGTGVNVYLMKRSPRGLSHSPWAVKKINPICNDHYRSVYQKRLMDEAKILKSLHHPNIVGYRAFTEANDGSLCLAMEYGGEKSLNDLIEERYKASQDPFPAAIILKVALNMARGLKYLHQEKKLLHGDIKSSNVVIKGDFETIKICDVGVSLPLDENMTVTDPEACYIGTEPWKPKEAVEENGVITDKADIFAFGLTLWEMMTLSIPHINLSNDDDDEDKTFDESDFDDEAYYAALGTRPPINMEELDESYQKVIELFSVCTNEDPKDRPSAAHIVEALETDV
The conditions noted are these: read-out: % Enzyme Activity (relative to DMSO controls), kinase PBK/TOPK.

In experiment [11] the target is T11, panel of 374 wild-type kinases (Homo sapiens, UniProt P22612).
T11 construct: purchased Reaction Biology Corporation
T11 sequence (P22612 whole entry): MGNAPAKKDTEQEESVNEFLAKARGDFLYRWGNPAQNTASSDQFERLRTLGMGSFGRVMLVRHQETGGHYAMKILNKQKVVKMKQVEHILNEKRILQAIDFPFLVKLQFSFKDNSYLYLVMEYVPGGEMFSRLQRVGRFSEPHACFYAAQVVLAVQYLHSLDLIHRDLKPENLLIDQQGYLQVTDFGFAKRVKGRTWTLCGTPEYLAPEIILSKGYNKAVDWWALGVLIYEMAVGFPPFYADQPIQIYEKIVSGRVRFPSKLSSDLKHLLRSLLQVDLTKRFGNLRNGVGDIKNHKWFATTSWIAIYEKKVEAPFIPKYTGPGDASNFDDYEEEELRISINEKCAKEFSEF
The following applies: read-out: % Enzyme Activity (relative to DMSO controls), kinase PKAcg.

In patent publication US20240246942A1, “KINASE INHIBITORS FOR THE TREATMENT OF NEURODEGENERATIVE DISEASES” (priority 2020, published 2024) one finds remaining activity data, which are given here for three compounds.

T2 sequence (P49841 whole entry): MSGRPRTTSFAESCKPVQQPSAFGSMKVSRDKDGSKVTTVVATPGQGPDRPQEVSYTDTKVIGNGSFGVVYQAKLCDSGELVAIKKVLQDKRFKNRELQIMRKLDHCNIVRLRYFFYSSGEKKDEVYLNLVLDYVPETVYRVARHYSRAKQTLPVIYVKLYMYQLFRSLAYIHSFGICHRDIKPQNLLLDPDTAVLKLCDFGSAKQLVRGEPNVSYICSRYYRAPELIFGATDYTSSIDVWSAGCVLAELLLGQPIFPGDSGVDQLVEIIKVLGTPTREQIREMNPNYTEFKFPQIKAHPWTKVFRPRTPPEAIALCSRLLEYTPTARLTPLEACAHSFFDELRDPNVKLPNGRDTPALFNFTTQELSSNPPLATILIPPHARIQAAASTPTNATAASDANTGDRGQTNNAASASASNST
T1 sequence (Q9BWU1 whole entry): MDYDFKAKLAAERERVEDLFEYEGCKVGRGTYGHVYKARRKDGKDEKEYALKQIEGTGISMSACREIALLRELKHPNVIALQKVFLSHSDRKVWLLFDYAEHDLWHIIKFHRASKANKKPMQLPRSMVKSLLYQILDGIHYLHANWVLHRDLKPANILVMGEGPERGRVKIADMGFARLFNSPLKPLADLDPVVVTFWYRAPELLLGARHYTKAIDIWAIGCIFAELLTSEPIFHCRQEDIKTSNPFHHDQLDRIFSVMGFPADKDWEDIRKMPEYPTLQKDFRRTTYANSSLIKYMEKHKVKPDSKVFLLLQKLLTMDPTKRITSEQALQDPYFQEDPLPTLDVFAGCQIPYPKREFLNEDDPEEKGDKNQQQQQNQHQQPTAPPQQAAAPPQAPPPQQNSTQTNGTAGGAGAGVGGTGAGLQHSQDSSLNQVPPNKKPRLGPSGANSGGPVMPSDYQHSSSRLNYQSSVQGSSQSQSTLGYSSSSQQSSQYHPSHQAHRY

In the case of `Cc1sc(C(=O)NC2COC2)cc1-n1cc(NC(=O)Nc2c(F)cccc2Cl)cn1` [Compound 27, 4-(4-(3-(2-chloro-6-fluorophenyl)ureido)-1H-pyrazol-1-yl)-5-methyl-N-(oxetan-3-yl)thiophene-2-carboxamide], the remaining activity at 10 µM in experiment [1] (10 uM) was determined as 98.1%; in [2] (10 uM) it was 94.9%; in [3] (10 uM) it was 87.5%; in [4] (10 uM) it was 84.7%; in experiment [5] (10 uM), 84%; in experiment [6] (10 uM), 104%. The remaining activity at 10 µM came out at 95% in experiment [7] (10 uM); 98.8% in [8] (10 uM); 114% in experiment [9] (10 uM); 88.5% in [10] (10 uM); 99% in experiment [11] (10 uM).

`O=C(Nc1cnn(-c2csc(C(=O)NC3COC3)c2)c1)Nc1c(F)cccc1Cl` [Compound 25, 4-(4-(3-(2-chloro-6-fluorophenyl)ureido)-1H-pyrazol-1-yl)-N-(oxetan-3-yl)thiophene-2-carboxamide]: the remaining activity at 5 µM in experiment [1] stood at 96.2%; in [2], 95.7%; in experiment [3], 88.5%; in experiment [4] it was 95.1%; in experiment [5], 91.2%; in experiment [6], 91%. Besides, the remaining activity at 5 µM came out at 102% in experiment [7]; 68.4% in experiment [8]; 64.2% in [9]; 98.2% in [10]; 97.6% in experiment [11].

On to `O=C(Nc1cnn(-c2csc(C(=O)NC3COC3)c2)c1)Nc1ccccc1Cl` [Compound 17, 4-(4-(3-(2-chlorophenyl)ureido)-1H-pyrazol-1-yl)-N-(oxetan-3-yl)thiophene-2-carboxamide], for which the remaining activity at 5 µM in experiment [1] was 105%; in experiment [2] it was 95%; in experiment [3], 95.1%; in [4] it was 91.5%; in [5], 102%; in experiment [6], 93.5%. Also, the remaining activity at 5 µM in experiment [7] was 105%; in [8] it was 75.4%; in experiment [9], 97.4%; in [10], 115%; in [11], 104%.
